Assay results: US20140154721A1, “Cellulase Assay” (Megazyme IP Limited, priority 2012, published 2014)
“Also recorded” adds a separate entry of the source.

Tests used:
[1] = tested on: cellulase from Aspergillus niger; assay: Cellulase assay: release of C1PNP (absorbance 400 nm) from end-blocked substrates, with and without β-glucosidase; format: biochemical; settings: 40° C., pH 4.5; absorbance 400 nm vs. time; FIGS. 2a-2b
Description: FIGS. 2a-2b are graphs of absorbance (400 nm) vs. time, for the action of a cellulase from Aspergillus niger on. […] FIG. 2b shows_end-blocked 2-chloro-4-nitrophenyl cellotriose (BC1PNP-G3) (700 milli-International Units per assay) at 40° C. and pH 4.5 in the presence and the absence of β-glucosidase using an assay of the invention. […] Note: One International Unit of enzyme activity as defined is the amount of enzyme required to release one micromole of reducing sugar equivalents per minute from carboxymethyl cellulose 4M (CMC-4M) (10 mg/mL) in 100 mM sodium acetate buffer (pH 4.5).
(§1) Prepare substrate solution by dissolving end-blocked p-nitrophenyl cello-oligosaccharides or end-blocked 2-Cl-4-nitrophenyl cello-oligosaccharide (DP 2, 3 or 4) in 2 mL of dimethyl sulphoxide to obtain a concentration of 12.5 mM. Cool this solution in ice and add 3 mL of 170 mM potassium chloride solution with mixing, to give a final substrate concentration of 5 mM. Prepare this solution fresh before use, or warm to 40° C. before use to ensure complete dissolution.
(§2) Add an aliquot (0.1 mL) of the substrate solution to the bottom of a 16×120 mm glass test tube, followed by 0.05 mL of pure β-glucosidase (Second embodiment only). […] Mix the tube contents and measure the absorbance at 400 nm against a reaction blank.

[2] = tested on: cellulase from Trichoderma longibrachiatum; assay: Cellulase assay: release of C1PNP/PNP (absorbance 400 nm) from substrates, with and without β-glucosidase; format: biochemical; settings: 40° C., pH 4.5; for sensitivity of the assay (rate of release of C1PNP) in the presence vs absence of β-glucosidase: absorbance 400 nm vs. time, FIGS. 3a-3b
Source text: FIGS. 3a-3b are graphs of absorbance (400 nm) vs. time, for the action of a cellulase from Trichoderma longibrachiatum on. […] In contrast, for BC1PNP-G3 (3b) the endo-acting Trichoderma cellulase cleaves the glycosidic bond either between two glucosyl units or between the bond between the terminal glucosyl unit and C1PNP releasing an end-blocked cello-oligosaccharide and a non-blocked C1PNP-cello-oligosaccharide fragment, or free C1PNP. The β-glucosidase in the assay mixture immediately hydrolyses the non-blocked C1PNP-cello-oligosaccharide released, giving D-glucose and free C1PNP.
FIG. 4 is a graph of absorbance (400 nm) vs. time, for the action of a cellulase from Trichoderma longibrachiatum (1500 milli-International Units on CMC-4M per assay) on p-nitrophenyl cellobiose (PNP-G2), 2-chloro-4-nitrophenyl cellobiose (C1PNP-G2), end-blocked p-nitrophenyl cellobiose (BPNP-G2) and end-blocked 2-chloro-4-nitrophenyl cellobiose (BC1PNP-G2) in the absence of added β-glucosidase at 40° C. and pH 4.5 using an assay of the invention (embodiment Two).
as §1
as §2, with “only). Incubate tubes for 2 min at the selected reaction temperature and initiate the reaction by adding 0.1 mL of sample solution containing cellulase in 200 mM buffer solution of the desired pH (usually in the range of 4.5 to 8.0).” for “only).”

Substance	sensitivity of the assay (rate of release of C1PNP) in the presence vs absence of β-glucosidase [1]	sensitivity of the assay (rate of release of C1PNP) in the presence vs absence of β-glucosidase [2]	rate of hydrolysis by Trichoderma cellulase (comparison of substrates) ([2]; absence of added β-glucosidase, 1500 milli-International Units per assay, FIG. 4)
end-blocked 2-chloro-4-nitrophenyl cellobiose [BC1PNP-G2]	same sensitivity of the assay; also recorded: no increase in the colour formed	same sensitivity of the assay; also recorded: the same result is seen	–
end-blocked 2-chloro-4-nitrophenyl cellotriose [BC1PNP-G3]	same sensitivity of the assay; also recorded: no increase in the colour formed	greater sensitivity of the assay in the presence of added β-glucosidase	–
end-blocked p-nitrophenyl cellobiose [BPNP-G2]	–	–	slower rate than BC1PNP-G2
